In patent US4734416A, “Pharmaceutically useful carbostyril derivatives” (Otsuka Pharmaceutical Co., Ltd., priority 1978, dated 1988):
Where a name gives a salt, the structure may show the parent alone.

Columns and labels:
[1] = Halothane anesthesia increasing activity (righting reflex); assay type: in vivo, mouse (male, ddy-strain); conditions: oral; for Time (minutes) between introduction of anesthesia and waking: 8 mg/kg, 1 hour before 4% Halothane
Method: Male mice of ddy-strain having about 20 g body weight are used. One test group consists of 10 mice. An aqueous Gummi Arabicum suspension of test compound (80 mg of a compound to be tested and 1 g of Gummi Arabicum/100 ml of physiological NaCl solution) is administered orally to each mouse at the dosage of 8 mg of test compound/kg body. One hour after the administration, each mouse is placed in a gas respiration chamber (13×13×24 cm) and oxygen gas containing 4% of Halothane [2-bromo-2-chloro-1,1,1-trifluoroethane] is blown into the chamber at the velocity of 2 l/min for 3 minutes. A mouse anaesthetized is taken out from the chamber and the time between the introduction of anesthesia to waking is measured by righting reflex as the index. To mice of the control group, 1% Gummi Arabicum aqueous physiological solution is orally administered at the dosage of 0.1 ml/10 g body. [Reference: M. J. Turnbull and J. W. Watkins: Br. J. Pharmac., 58, 27-35 (1976)]
Same procedures as mentioned in (II)-(A) are employed, except that the amount of test compound to be orally administered is changed in 4 steps at the dosage of 0.5 mg/kg, 1 mg/kg, 2 mg/kg and 4 mg/kg respectively to measure the relationship between the dosage and degree of strength of anesthesia increasing activity.

[2] = Hexabarbital sleep increasing activity (righting reflex); assay type: in vivo, mouse (male, ddy-strain); conditions: oral, Hexabarbital Na 70 mg/kg i.p.
Method: Male mice of ddy-strain having 20 to 25 g body weight are starved for 24 hours. One test group consists of 10 mice. An aqueous Gummi Arabicum suspension of test compound (0.05 g of test compound and 1 g of Gummi Arabicum/100 ml of physiological NaCl solution) is administered orally at the dosage mentioned in the Table 4. One hour after the administration 0.7% of Hexabarbitol.Na-salt is intraperitonerally administered at the dosage of 70 mg/kg body weight. The time between the introduction of sleep to waking is measured by righting reflex as the index. [Reference: A. M. Hjort, De E. J. Beer and D. W. Fassett; J. Pharmac., Exptl.

[3] = Analgetic activity (acetic acid writhing); assay type: in vivo, mouse (male, ddy-strain); conditions: Mus musculus, read-out: ED50 (analgetic activity)
Method: Male mice of ddy-strain having 15-23 g of body weight are used. One test group consists of 10 mice. The compound to be tested is administered orally by procedures similar to the method mentioned in (II). Fifty minutes after the administration, 0.1 ml of 0.6% acetic acid aqueous solution/10 g body weight is injected intraperitoneally. In case of the mice administered orally with the reference compound (Haloperidol), the injection is made 110 minutes after the administration. The number of writhings shown after 10 minutes is counted for 10 minutes and the ED50 value of respective compounds is calculated in comparison with the number of writhings shown by control group. [Reference: R. Koster, M. Anderson and E. I. Debeer: Fed. Proc., 18, 412, (1959)]

[4] = biological target: T1, enucleated ileum of a guinea pig (Cavia porcellus, UniProt P31389); assay: Antihistamine activity test in vitro (enucleated guinea pig ileum, histamine retraction, pA2 by Van Rossam method); conditions: 10^-6 g/ml test compound, 5 minutes before histamine, 36° C.
T1 construct: the tissue of ileum is cut to a length of 2.5 to 3.0 cm and suspended in an organ bath; from tissue; host or cells: isolated ileum from the ileocecal region of male guinea pig
Method: As to the test method for determining antihistamine activity of a compound in vitro, a method of using an enucleated ileum of a guinea pig is generally accepted.
A male guinea pig having 300 to 500 g body weight is killed by blood letting. An ileum having a length of 15 cm being enculeated from the ileocecal region is dipped into Tyrode's solution (which is prepared from […], 0.2 g of KCl, 0.2 g of CaCl2, 1.0 g of glucose, 1.0 g of NaHCO3, 0.065 g of NaHPO4.2H2 O and 0.2135 g of MgCl2.6H2 O to make 1000 ml in total volume by adding water). Then the tissue of ileum is cut to a length of 2.5 to 3.0 cm and suspended in an organ bath filled with 30 ml of Tyrode's solution. The organ bath is kept at a temperature of 36° C. and a mixed gas consisting of 5% of CO2 and 95% of O2 is blown into the bath. 10 Minutes after the blowing, 10^-6 M of histamine is added to the bath to examine the sensitivity of the tissue and a reaction curve (control) with respect to the dosage of histamine is obtained. After the dosage of histamine-reaction curve (control) becomes constant, 10^-6 g/ml of a compound to be tested is added to the bath and further histamine is added 5 minutes later to obtain a dosage-reaction curve. Retraction of the ileum is recorded on a pen-recorder through an isotonic transducer [TD-112S manufactured by Nihon Koden]. Antihistamine activity of the test compound is determined as pA2 value by the "Van Rossam" method [J. M. Van Rossam; Arch. Inst. Pharmacodyn., 143, 299 (1963)] wherein the maximum retraction of ileum caused by histamine shown in the control curve is 100%.

[5] = Activity for inhibiting fighting behavior of mouse isolated singly for a long period of time; assay type: in vivo, mouse (male, ddy-strain); conditions: positive if fighting no longer than 5 seconds in a minute, range in parentheses, read-out: ED50 (inhibition of fighting behavior)
Method: Individual male mice of ddy-strain having 15 to 20 g of body weight are breeded separately in respective cages for 1 month. One test group consists of 10 pairs of mice. The pairs of mice are selected so that when one mouse is taken into the home cage of another, the two mice fight together continuously for over 30 seconds. ED50 values are calculated by administering the respective test compounds to each test groups of mice. Activity for inhibiting fighting behavior of the test compound is determined as positive in case the administered mice only continue the fighting for no longer than 5 seconds in a minute. When the mice continue the fighting over 5 seconds they are forced to separate for the purpose of reducing the number of injured mice. [Reference: C. Y. Yen, R. L. Stanger and N. Millman: Arch. Int. Pharmacodyn., 123, 179 (1959)]

in vivo = conditions: mouse
Method: Mice of ddy-strain having 20-22 g of body weight are used. One test group consists of 10 mice.
Oral administration: Compound to be tested is suspended in 1% Gummi Arabicum physiological NaCl aqueous solution.
Intravenuous administration: Compound to be tested is dissolved in 50% propyleneglycol aqueous solution.

T1 sequence (P31389 whole entry): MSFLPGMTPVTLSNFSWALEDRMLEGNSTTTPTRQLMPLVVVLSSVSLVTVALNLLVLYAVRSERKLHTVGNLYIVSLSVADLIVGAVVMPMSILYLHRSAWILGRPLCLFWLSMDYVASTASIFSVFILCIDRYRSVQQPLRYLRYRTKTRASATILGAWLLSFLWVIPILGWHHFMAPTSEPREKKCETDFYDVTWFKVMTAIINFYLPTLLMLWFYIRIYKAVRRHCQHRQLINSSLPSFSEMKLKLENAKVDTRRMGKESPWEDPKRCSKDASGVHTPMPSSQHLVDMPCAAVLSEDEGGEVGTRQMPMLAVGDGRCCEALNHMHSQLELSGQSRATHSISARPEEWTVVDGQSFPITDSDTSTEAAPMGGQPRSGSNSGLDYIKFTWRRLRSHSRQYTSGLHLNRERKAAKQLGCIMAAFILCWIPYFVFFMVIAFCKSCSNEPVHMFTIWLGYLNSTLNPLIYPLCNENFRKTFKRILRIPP

O=C(CCCN1CCC(O)(c2ccc(Cl)cc2)CC1)c1ccc(F)cc1 [Haloperidol, reference compound]
Anesthesia increasing activity ([1]; 0.5 mg/kg): 5.3 ± 2.9 min
Anesthesia increasing activity ([1]; 1 mg/kg): 5.1 ± 2.5 min
Anesthesia increasing activity ([1]; 2 mg/kg): 9.3 ± 3.1 min
Anesthesia increasing activity ([1]; 4 mg/kg): 10.2 ± 3.7 min
Sleep time (min.) [Mean ± SD] ([2]; 4 mg/kg): 43.01 ± 19.22 min
Sleep time (min.) [Mean ± SD] ([2]; 8 mg/kg): 46.83 ± 13.94 min
Sleep time (min.) [Mean ± SD] ([2]; 16 mg/kg): 66.81 ± 14.32 min
ED50 ([3]; po, 110 min): 2.31 mg/kg

O=C1CCc2c(cccc2OCCCN2CCN(c3ccccc3)CC2)N1 [Compound 5, 5-[3-(4-Phenylpiperazinyl)propoxy]-3,4-dihydrocarbostyril dihydrochloride]
Kb [4]: 1.35 nM
Anesthesia increasing activity ([1]; 0.5 mg/kg): 5.2 ± 2.1 min
Anesthesia increasing activity ([1]; 1 mg/kg): 8.5 ± 3.5 min
Anesthesia increasing activity ([1]; 2 mg/kg): 9.6 ± 4.1 min
Anesthesia increasing activity ([1]; 4 mg/kg): 12.7 ± 3.9 min
Time (minutes) between introduction of anesthesia and waking [1]: 16.9 ± 7.9 min
ED50 [5]: 1.28 mg/kg

O=C1CCc2c(cccc2OCCCN2CCCN(c3ccccc3)CC2)N1 [Compound 31, 5-[3-(4-Phenylhomopiperazinyl)propoxy]-3,4-dihydrocarbostyril]
Kb [4]: 0.263 nM
Time (minutes) between introduction of anesthesia and waking [1]: 8.2 ± 3.9 min
LD50 (in vivo; iv, female mice): 248 mg/kg
LD50 (in vivo; iv, male mice): 256 mg/kg
LD50 (in vivo; po, female mice): 923 mg/kg
LD50 (in vivo; po, male mice): 870 mg/kg
ED50 ([3]; 50 min, oral, 50 minutes before acetic acid i.p., range in parentheses): 1.92 mg/kg

CN1C(=O)CN=C(c2ccccc2)c2cc(Cl)ccc21 [Diazepam, reference compound]
ED50 [5]: 7.29 mg/kg

COc1ccccc1N1CCN(CCCOc2ccc3c(c2)NC(=O)CC3)CC1 [Compound 17, 7-{3-[4-(2-Methoxyphenyl)piperazinyl]propoxy}-3,4-dihydrocarbostyril]
Kb [4]: 0.871 nM
Time (minutes) between introduction of anesthesia and waking [1]: 13.6 ± 5.2 min
ED50 [5]: 0.92 mg/kg
Sleep time (min.) [Mean ± SD] ([2]; 0.125 mg/kg): 39.51 ± 8.45 min
Sleep time (min.) [Mean ± SD] ([2]; 0.25 mg/kg): 45.57 ± 10.05 min
Sleep time (min.) [Mean ± SD] ([2]; 0.5 mg/kg): 51.77 ± 6.60 min
Sleep time (min.) [Mean ± SD] ([2]; 1.0 mg/kg): 56.92 ± 6.13 min
LD50 (in vivo; iv, female mice): 216 mg/kg
LD50 (in vivo; iv, male mice): 218 mg/kg
LD50 (in vivo; po, female mice): 860 mg/kg
LD50 (in vivo; po, male mice): 898 mg/kg

O=C1CCc2ccc(OCCCN3CCN(c4cccc(Cl)c4)CC3)cc2N1 [Compound 39, 7-{3-[4-(3-Chlorophenyl)piperazinyl]propoxy}-3,4-dihydrocarbostyril]
Kb [4]: 0.182 nM
Time (minutes) between introduction of anesthesia and waking [1]: 5.0 ± 2.9 min
ED50 [5]: 0.96 mg/kg
LD50 (in vivo; iv, female mice): 293 mg/kg
LD50 (in vivo; iv, male mice): 310 mg/kg
LD50 (in vivo; po, female mice): 1100 mg/kg
LD50 (in vivo; po, male mice): 1210 mg/kg

CN1C(=O)CCc2c(OCC(O)CN3CCN(c4ccccc4)CC3)cccc21 (stereo not drawn) [Compound 7, 1-Methyl-5-[2-hydroxy-3-(4-phenylpiperazinyl)propoxy]-3,4-dihydrocarbostyril monohydrochloride]
Kb [4]: 0.132 nM
Anesthesia increasing activity ([1]; 0.5 mg/kg): 5.3 ± 2.5 min
Anesthesia increasing activity ([1]; 1 mg/kg): 7.4 ± 3.1 min
Anesthesia increasing activity ([1]; 2 mg/kg): 9.5 ± 3.8 min
Anesthesia increasing activity ([1]; 4 mg/kg): 13.7 ± 4.7 min
Time (minutes) between introduction of anesthesia and waking [1]: 8.9 ± 2.4 min
LD50 (in vivo; iv, female mice): 432 mg/kg
LD50 (in vivo; iv, male mice): 424 mg/kg
LD50 (in vivo; po, female mice): 1650 mg/kg
LD50 (in vivo; po, male mice): 1600 mg/kg

O=C1CCc2ccc(OCCCN3CCN(c4ccc(Cl)cc4)CC3)cc2N1 [Compound 16, 7-{3-[4-(4-Chlorophenyl)piperazinyl]propoxy}-3,4-dihydrocarbostyril]
Kb [4]: 0.234 nM
Time (minutes) between introduction of anesthesia and waking [1]: 11.4 ± 5.6 min

O=C1CCc2ccc(OCCCN3CCN(c4ccccc4)CC3)cc2N1Cc1ccccc1 [Compound 12, 1-Benzyl-7-[3-(4-phenylpiperazinyl)propoxy]-3,4-dihydrocarbostyril]
Kb [4]: 6.17 nM
Time (minutes) between introduction of anesthesia and waking [1]: 7.5 ± 3.5 min

CN1C(=O)CCc2c(OCCCN3CCN(c4ccccc4)CC3)cccc21 [Compound 9, 1-Methyl-5-[3-(4-phenylpiperazinyl)propoxy]-3,4-dihydrocarbostyril monohydrochloride]
Kb [4]: 0.0263 nM
Time (minutes) between introduction of anesthesia and waking [1]: 9.5 ± 3.2 min
ED50 [5]: 1.52 mg/kg

O=C1CCc2cc(Cl)c(OCCCN3CCN(c4ccccc4)CC3)c(Br)c2N1 [Compound 28, 6-Chloro-8-bromo-7-[3-(4-phenylpiperazinyl)propoxy]-3,4-dihydrocarbostyril dihydrochloride]
Kb [4]: 0.229 nM
Time (minutes) between introduction of anesthesia and waking [1]: 10.2 ± 5.8 min

O=C1CCc2ccc(OCCCN3CCN(C(=O)c4ccccc4)CC3)cc2N1 [Compound 35, 7-[3-(4-Benzoylpiperazinyl)propoxy]-3,4-dihydrocarbostyril]
Kb [4]: 2.63 nM
Time (minutes) between introduction of anesthesia and waking [1]: 8.2 ± 3.7 min

Cc1ccc(N2CCN(CCCCOc3cccc4c3CCC(=O)N4)CC2)cc1 [Compound 10, 5-{4-[4-(4-Methylphenyl)piperazinyl]butoxy}-3,4-dihydrocarbostyril]
Kb [4]: 1.26 nM
Time (minutes) between introduction of anesthesia and waking [1]: 7.9 ± 3.7 min

CC(COc1ccc2c(c1)NC(=O)CC2)CN1CCN(c2ccccc2)CC1 (stereo not drawn) [Compound 25, 7-[2-Methyl-3-(4-phenylpiperazinyl)propoxy]-3,4-dihydrocarbostyril]
Kb [4]: 0.617 nM
Time (minutes) between introduction of anesthesia and waking [1]: 7.8 ± 3.3 min
